As usually defined, the IC50 is the concentration that gives 50% inhibition.

Common to all, as to assay type: biochemical
One experiment deals with T1, human GST-CLK1 (129-end) (Homo sapiens, UniProt P49759).
T1 construct: purified human GST-CLK1 (129-end, Signalchem) enzyme; GST; purchased Signalchem
Kind of experiment: GST-CLK1 enzyme inhibition, ADP-Glo kinase assay. To be noted: ATP 10 uM. In a few lines:
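GST-CLK1 (129-end, 3 ng) reacted with 10 uM ATP and substrate in 40 mM Tris-HCl pH 7.4, 20 mM MgCl2, 0.5 mg/mL BSA, 50 uM DTT, 1 h at 25° C. ADP-Glo luminescence normalised to solvent control; IC50 from triplicate data.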

The target of a further experiment is LRRK2 (Homo sapiens, UniProt Q5S007). Put plainly: LRRK2 enzyme inhibition, ADP-Glo kinase assay. Set-up: purchased Invitrogen PR8604B. In a few lines: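 Purified human LRRK2 (25 ng) in 40 mM Tris-HCl pH7.4, 20 mM MgCl2, 0.5 mg/ml BSA, 50 μM DTT with 10 μM ATP and substrate ([…]), 2 h at 25° C. Final compound 50 to 0.000001024 μM, 12-point dilution. ADP-Glo luminescence vs solvent control; IC50 (nM).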
Sequence of LRRK2 (Q5S007 970-2527 limits assumed): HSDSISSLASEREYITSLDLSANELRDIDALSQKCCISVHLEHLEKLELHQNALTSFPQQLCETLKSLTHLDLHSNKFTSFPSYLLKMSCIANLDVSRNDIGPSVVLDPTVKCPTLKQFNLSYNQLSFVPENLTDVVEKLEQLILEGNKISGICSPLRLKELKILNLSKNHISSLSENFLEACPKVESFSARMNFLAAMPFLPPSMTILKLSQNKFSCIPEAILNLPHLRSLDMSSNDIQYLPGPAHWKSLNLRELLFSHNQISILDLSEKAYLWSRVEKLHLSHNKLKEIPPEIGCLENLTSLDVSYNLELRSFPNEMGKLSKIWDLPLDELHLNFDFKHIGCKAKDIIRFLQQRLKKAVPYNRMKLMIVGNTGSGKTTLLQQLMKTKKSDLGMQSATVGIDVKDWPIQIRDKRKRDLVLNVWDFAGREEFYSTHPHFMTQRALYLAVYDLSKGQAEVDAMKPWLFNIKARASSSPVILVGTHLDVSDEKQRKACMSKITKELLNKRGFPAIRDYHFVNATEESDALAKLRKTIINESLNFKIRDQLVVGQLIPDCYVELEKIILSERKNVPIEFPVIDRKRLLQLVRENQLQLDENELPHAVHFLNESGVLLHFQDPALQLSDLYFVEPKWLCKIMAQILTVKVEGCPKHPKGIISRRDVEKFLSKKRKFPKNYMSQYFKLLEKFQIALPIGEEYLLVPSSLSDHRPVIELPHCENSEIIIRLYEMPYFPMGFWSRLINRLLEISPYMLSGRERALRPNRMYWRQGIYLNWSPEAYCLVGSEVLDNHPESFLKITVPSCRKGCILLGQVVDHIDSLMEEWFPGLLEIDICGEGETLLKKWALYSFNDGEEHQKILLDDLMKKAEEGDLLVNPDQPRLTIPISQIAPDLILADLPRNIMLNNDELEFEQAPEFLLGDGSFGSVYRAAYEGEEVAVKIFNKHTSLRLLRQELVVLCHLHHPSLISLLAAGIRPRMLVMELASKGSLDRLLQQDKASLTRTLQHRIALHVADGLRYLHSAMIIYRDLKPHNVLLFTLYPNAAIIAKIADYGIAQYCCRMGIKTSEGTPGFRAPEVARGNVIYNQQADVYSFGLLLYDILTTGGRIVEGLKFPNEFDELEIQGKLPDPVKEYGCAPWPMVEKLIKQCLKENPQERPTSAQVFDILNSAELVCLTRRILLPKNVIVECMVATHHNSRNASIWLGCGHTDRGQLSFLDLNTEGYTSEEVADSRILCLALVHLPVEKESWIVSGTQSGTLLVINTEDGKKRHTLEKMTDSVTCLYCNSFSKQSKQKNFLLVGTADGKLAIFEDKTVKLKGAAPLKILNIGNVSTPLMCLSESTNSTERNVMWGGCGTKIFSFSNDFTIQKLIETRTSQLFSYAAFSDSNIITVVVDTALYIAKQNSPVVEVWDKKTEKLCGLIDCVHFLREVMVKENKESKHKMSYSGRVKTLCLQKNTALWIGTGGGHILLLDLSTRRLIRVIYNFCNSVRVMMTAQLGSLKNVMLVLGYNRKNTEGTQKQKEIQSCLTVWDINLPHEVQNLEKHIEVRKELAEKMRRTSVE

Experiment [1] addresses T2, human GST-DYRK1A (full length) (Homo sapiens, UniProt Q13627).
T2 construct: purified human GST-DYRK1A (full length, Thermo scientifics) enzyme; GST; purchased Thermo scientifics
Put plainly: GST-DYRK1A enzyme inhibition, ADP-Glo kinase assay. To be noted: read-out: DYRK1 IC50. An outline of the steps:
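Full-length human GST-DYRK1A (10 ng) incubated with 10 uM ATP and specific substrate for 1 h at 25° C in 40 mM Tris-HCl pH 7.4, 20 mM MgCl2, 0.5 mg/mL BSA, 50 uM DTT. ADP formation read by ADP-Glo luminescence; IC50 (nM) versus solvent control, triplicate.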
A general note: In ADP-Glo the light output rises with the ADP produced.

T1 sequence (P49759 129-484 limits assumed): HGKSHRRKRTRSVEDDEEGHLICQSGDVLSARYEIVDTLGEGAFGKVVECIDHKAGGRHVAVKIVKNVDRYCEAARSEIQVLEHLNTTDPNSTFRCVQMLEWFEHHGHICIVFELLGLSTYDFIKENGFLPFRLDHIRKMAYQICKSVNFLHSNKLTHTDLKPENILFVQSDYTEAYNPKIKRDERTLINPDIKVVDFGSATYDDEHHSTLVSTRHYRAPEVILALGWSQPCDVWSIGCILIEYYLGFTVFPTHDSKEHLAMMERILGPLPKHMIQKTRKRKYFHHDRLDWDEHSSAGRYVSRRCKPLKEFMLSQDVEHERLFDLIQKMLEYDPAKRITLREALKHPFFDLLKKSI

`O=C(c1ccc(Nc2cc(NC3CC3)c3c(C(F)(F)F)c[nH]c3n2)c2c1CCO2)N1CCC(N2CCOCC2)CC1` [Example 92, (7-((4-(cyclopropylamino)-3-(trifluoromethyl)-1H-pyrrolo[2,3-b]pyridin-6-yl)amino)-2,3-dihydrobenzofuran-4-yl)(4-morpholinopiperidin-1-yl)methanone]: the IC50 (against human GST-CLK1 (129-end); against LRRK2; in experiment [1]) was less than 100 nM each time.
For the molecule `CCNc1cc(Nc2ccc(C(=O)N3CCC(N4CCOCC4)CC3)c3c2OCC3)nc2[nH]cc(C(F)(F)F)c12` [Example 90, (7-((4-(ethylamino)-3-(trifluoromethyl)-1H-pyrrolo[2,3-b]pyridin-6-yl)amino)-2,3-dihydrobenzofuran-4-yl)(4-morpholinopiperidin-1-yl)methanone], the IC50 (against human GST-CLK1 (129-end); against LRRK2; in experiment [1]) was less than 100 nM in each case.
Regarding `CCNc1cc(Nc2ccc(C(=O)N3CCC(N4CCOCC4)CC3)c3c2OCO3)nc2[nH]cc(C(F)(F)F)c12` [Example 37, (7-((4-(ethylamino)-3-(trifluoromethyl)-1H-pyrrolo[2,3-b]pyridin-6-yl)amino)benzo[d][1,3]dioxol-4-yl)(4-morpholinopiperidin-1-yl)methanone], the IC50 (on human GST-CLK1 (129-end); on LRRK2; in experiment [1]) was less than 100 nM in each case.
With `COc1cc(S(=O)(=O)N2CCOCC2)ccc1Nc1cc(C2CC2)c2c(C(F)(F)F)c[nH]c2n1` [Example 222, 4-cyclopropyl-N-(2-methoxy-4-(morpholinosulfonyl)phenyl)-3-(trifluoromethyl)-1H-pyrrolo[2,3-b]pyridin-6-amine], the IC50 on human GST-CLK1 (129-end) and at LRRK2 was 301 to 1000 nM throughout.
Regarding `COCCNc1cc(Nc2ccc(C(=O)N3CCC(N4CCOCC4)CC3)c3c2OCC3)nc2[nH]cc(C(F)(F)F)c12` [Example 55, (7-((4-((2-methoxyethyl)amino)-3-(trifluoromethyl)-1H-pyrrolo[2,3-b]pyridin-6-yl)amino)-2,3-dihydrobenzofuran-4-yl)(4-morpholinopiperidin-1-yl)methanone], the IC50 (against human GST-CLK1 (129-end); against LRRK2; in experiment [1]) was less than 100 nM throughout.
Take `CCNc1cc(Nc2ccc(C(=O)N3C[C@@H]4C[C@H]3CO4)c3c2OCCO3)nc2[nH]cc(C(F)(F)F)c12` [Example 44, ((1S,4S)-2-oxa-5-azabicyclo[2.2.1]heptan-5-yl)(8-((4-(ethylamino)-3-(trifluoromethyl)-1H-pyrrolo[2,3-b]pyridin-6-yl)amino)-2,3-dihydrobenzo[b] [1,4]dioxin-5-yl)methanone]: the IC50 (against human GST-CLK1 (129-end); against LRRK2; in experiment [1]) was less than 100 nM in each case.
On to `CNc1cc(Nc2ccc(S(=O)(=O)N3CCC(N4C[C@H]5C[C@@H]4CO5)CC3)cc2OC)nc2[nH]cc(C(F)(F)F)c12` [Example 243, N^6-(4-((4-((1R,4R)-2-oxa-5-azabicyclo[2.2.1]heptan-5-yl)piperidin-1-yl)sulfonyl)-2-methoxyphenyl)-N^4-methyl-3-(trifluoromethyl)-1H-pyrrolo[2,3-b]pyridine-4,6-diamine], for which the IC50 (at human GST-CLK1 (129-end); on LRRK2; in experiment [1]) was less than 100 nM each time.
Turning to `CCNc1cc(Nc2ccc(P3(=O)CCN(C4CCOCC4)CC3)cc2OC)nc2[nH]cc(C(F)(F)F)c12` [Example 94, 4-(4-((4-(ethylamino)-3-(trifluoromethyl)-1H-pyrrolo[2,3-b]pyridin-6-yl)amino)-3-methoxyphenyl)-1-(tetrahydro-2H-pyran-4-yl)-1,4-azaphosphinane 4-oxide], the IC50 (against human GST-CLK1 (129-end); against LRRK2; in experiment [1]) was 101 to 300 nM in each case.
Consider `COCCNc1cc(Nc2ccc(S(=O)(=O)N3CCC(N4CCOCC4)CC3)c3c2OCCO3)nc2[nH]cc(C(F)(F)F)c12` [Example 97, N^4-(2-methoxyethyl)-N^6-(8-((4-morpholonopiperidin-1-yl)sulfonyl)-2,3-dihydrobenzo[b] [1,4]dioxin-5-yl)-3-(trifluoromethyl)-1H-pyrrolo[2,3-b]pyridine-4,6-diamine], for which the IC50 at human GST-CLK1 (129-end) is less than 100 nM; against LRRK2, less than 100 nM; in experiment [1] it was 101 to 300 nM.
Regarding `N#Cc1c[nH]c2nc(Nc3ccc(C(=O)N4CCC(N5CCOCC5)CC4)c4c3OCCO4)cc(C3CC3)c12` [Example 226, 4-cyclopropyl-6-((8-(4-morpholinopiperidine-1-carbonyl)-2,3-dihydrobenzo[b] [1,4]dioxin-5-yl)amino)-1H-pyrrolo[2,3-b]pyridine-3-carbonitrile], the IC50 against human GST-CLK1 (129-end) and against LRRK2 was less than 100 nM each time.
Consider `COc1cc(S(=O)(=O)N2CCOCC2)ccc1Nc1cc(C2CC2)c2c(C#N)c[nH]c2n1` [Example 227, 4-cyclopropyl-6-((2-methoxy-4-(morpholinosulfonyl)phenyl)amino)-1H-pyrrolo[2,3-b]pyridine-3-carbonitrile], for which the IC50 was 301 to 1000 nM against human GST-CLK1 (129-end), less than 100 nM against LRRK2 and 301 to 1000 nM in experiment [1].
Take `COc1cc(S(=O)(=O)N2CCC(N3CCOCC3)CC2)ccc1Nc1cc(C2CC2)c2c(C#N)c[nH]c2n1` [Example 228, 4-cyclopropyl-6-((2-methoxy-4-((4-morpholinopiperidin-1-yl)sulfonyl)phenyl)amino)-1H-pyrrolo[2,3-b]pyridine-3-carbonitrile]: the IC50 is 301 to 1000 nM against human GST-CLK1 (129-end) and less than 100 nM at LRRK2.
Regarding `CCNc1cc(Nc2ccc(C(=O)N3CCN(C4COC4)CC3)c3c2OCC3)nc2[nH]cc(C(F)(F)F)c12` [Example 248, (7-((4-(ethylamino)-3-(trifluoromethyl)-1H-pyrrolo[2,3-b]pyridin-6-yl)amino)-2,3-dihydrobenzofuran-4-yl)(4-(oxetan-3-yl)piperazin-1-yl)methanone], the IC50 (against human GST-CLK1 (129-end); in experiment [1]) was less than 100 nM throughout.
`N#Cc1c[nH]c2nc(Nc3ccc(C(=O)N4CCOCC4)c4c3OCCO4)cc(C3CC3)c12` [Example 225, 4-cyclopropyl-6-((8-(morpholine-4-carbonyl)-2,3-dihydrobenzo[b] [1,4]dioxin-5-yl)amino)-1H-pyrrolo[2,3-b]pyridine-3-carbonitrile]: the IC50 against human GST-CLK1 (129-end) was 301 to 1000 nM; at LRRK2 it was less than 100 nM.
As for `CNc1cc(Nc2ccc(C(=O)N3CCC(N4C[C@@H]5C[C@H]4CO5)CC3)c3c2OCC3)nc2[nH]cc(C(F)(F)F)c12` [Example 241, (4-((1S,4S)-2-oxa-5-azabicyclo[2.2.1]heptan-5-yl)piperidin-1-yl)(7-((4-(methylamino)-3-(trifluoromethyl)-1H-pyrrolo[2,3-b]pyridin-6-yl)amino)-2,3-dihydrobenzofuran-4-yl)methanone], the IC50 (against human GST-CLK1 (129-end); against LRRK2; in experiment [1]) was less than 100 nM each time.
For `O=C(c1ccc(Nc2cc(C3CC3)c3c(C(F)(F)F)c[nH]c3n2)c2c1CCO2)N1CCOCC1` [Example 91, (7-((4-cyclopropyl-3-(trifluoromethyl)-1H-pyrrolo[2,3-b]pyridin-6-yl)amino)-2,3-dihydrobenzofuran-4-yl)(morpholino) methanone], on LRRK2, the IC50 was 301 to 1000 nM.
Turning to `O=C(c1ccc(Nc2cc(C3CC3)c3c(C(F)(F)F)c[nH]c3n2)c2c1CCO2)N1CCC(N2CCOCC2)CC1` [Example 93, (7-((4-cyclopropyl-3-(trifluoromethyl)-1H-pyrrolo[2,3-b]pyridin-6-yl)amino)-2,3-dihydrobenzofuran-4-yl)(4-morpholinopiperidin-1-yl)mthanone], the IC50 against human GST-CLK1 (129-end) and at LRRK2 was less than 100 nM each time.
`COc1cc(P2(=O)CCN(C(C)=O)CC2)ccc1Nc1cc(C2CC2)c2c(C(F)(F)F)c[nH]c2n1` [Example 48, 1-(4-(4-((4-cyclopropyl-3-(trifluoromethyl)-1H-pyrrolo[2,3-b]pyridin-6-yl)amino)-3-methoxyphenyl)-4-oxido-1,4-azaphosphinan-1-yl)ethan-1-one]: the IC50 on human GST-CLK1 (129-end) and on LRRK2 was 301 to 1000 nM each time.
Consider `CCNc1cc(Nc2ccc(C(=O)N3CCC(N4C[C@H]5C[C@@H]4CO5)CC3)c3c2OCC3)nc2[nH]cc(C(F)(F)F)c12` [Example 244, (4-((1R,4R)-2-oxa-5-azabicyclo[2.2.1]heptan-5-yl)piperidin-1-yl)(7-((4-(ethylamino)-3-(trifluoromethyl)-1H-pyrrolo[2,3-b]pyridin-6-yl)amino)-2,3-dihydrobenzofuran-4-yl)methanone], for which the IC50 (at human GST-CLK1 (129-end); in experiment [1]) was less than 100 nM throughout.
Turning to `O=C(c1ccc(Nc2cc(C3CC3)c3c(C(F)(F)F)c[nH]c3n2)c2c1OCO2)N1CCC(N2CCOCC2)CC1` [Example 49, (7-((4-cyclopropyl-3-(trifluoromethyl)-1H-pyrrolo[2,3-b]pyridin-6-yl)amino)benzo[d][1,3]dioxol-4-yl)(4-morpholinopiperidin-1-yl)methanone], the IC50 at human GST-CLK1 (129-end) and against LRRK2 was less than 100 nM in each case.
For the molecule `CCNc1cc(Nc2cc(F)c(S(=O)(=O)N3CCC(N4CCOCC4)CC3)cc2OC)nc2[nH]cc(C(F)(F)F)c12` [Example 266, N^4-ethyl-N^6-(5-fluoro-2-methoxy-4-((4-morpholinopiperidin-1-yl)sulfonyl)phenyl)-3-(trifluoromethyl)-1H-pyrrolo[2,3-b]pyridine-4,6-diamine], the IC50 (on human GST-CLK1 (129-end); in experiment [1]) was 301 to 1000 nM in each case.

The values are drawn from US12240844B2 (Voronoi, Inc., priority 2019, dated 2025).
